The term IC50 denotes the concentration that inhibits the measured activity by half. Low readings indicate greater potency in that assay, high ones weaker potency in that assay.

Each structure is given as a SMILES string.

Parameters in all cases: species or system Severe acute respiratory syndrome coronavirus 2
A short description of assay [1]: Inhibition of SARS-CoV-2 main protease L89F mutant expressed in Escherichia coli BL21 (DE3) using DABCYL-KTSAVLQ1SGFRKM-E(EDANS)-NH2 as substrate preincubated for 10 mins followed by substrate addition and measured after 5 mins by FRET analysis.
Assay [2] can be described thus: Inhibition of SARS-CoV-2 main protease L205V mutant expressed in Escherichia coli BL21 (DE3) using DABCYL-KTSAVLQ1SGFRKM-E(EDANS)-NH2 as substrate preincubated for 10 mins followed by substrate addition and measured after 5 mins by FRET analysis.
Assay [3] can be described thus: Inhibition of SARS-CoV-2 main protease T21I mutant expressed in Escherichia coli BL21 (DE3) using DABCYL-KTSAVLQ1SGFRKM-E(EDANS)-NH2 as substrate preincubated for 10 mins followed by substrate addition and measured after 5 mins by FRET analysis.
A short description of assay [4]: Inhibition of SARS-CoV-2 main protease G15S mutant expressed in Escherichia coli BL21 (DE3) using DABCYL-KTSAVLQ1SGFRKM-E(EDANS)-NH2 as substrate preincubated for 10 mins followed by substrate addition and measured after 5 mins by FRET analysis.
Assay [5] is described as follows: Inhibition of SARS-CoV-2 main protease K90R mutant expressed in Escherichia coli BL21 (DE3) using DABCYL-KTSAVLQ1SGFRKM-E(EDANS)-NH2 as substrate preincubated for 10 mins followed by substrate addition and measured after 5 mins by FRET analysis.
The nature of assay [6]: Inhibition of SARS-CoV-2 main protease P132H mutant expressed in Escherichia coli BL21 (DE3) using DABCYL-KTSAVLQ1SGFRKM-E(EDANS)-NH2 as substrate preincubated for 10 mins followed by substrate addition and measured after 5 mins by FRET analysis.

For the molecule `CC(C)(C)[C@H](NC(=O)C(F)(F)F)C(=O)N1C[C@H]2[C@@H]([C@H]1C(=O)N[C@H](C#N)C[C@@H]1CCNC1=O)C2(C)C`, the IC50 in assay [1] is 10.5 nM; in assay [2] it was 10.7 nM; in assay [3], 10.1 nM; in assay [4], 10.3 nM; in assay [5], 12.7 nM; in assay [6] it was 12.2 nM.

(Values after ChEMBL document CHEMBL5143594 (Bioorg Med Chem Lett, 2022).)
